Data: paper PMC9374667 (Communications Biology, 2022)
“And” between values parts separate entries of the source, which are not always exact repeats. Identical values can stand only once.

Columns and labels:
Assay type in all cases: cell-based, Murine
cAMP, glycerol release = assay: cAMP levels and glycerol release in TNF-α induced 3T3-L1 adipocytes (isoproterenol)
Experimental: The epididymal adipose tissue was dissected, the fresh adipose tissue was weighed and rapidly rinsed with PBS. The adipose tissue was cut and incubated with isoproterenol (10 μM) for 2 h, and homogenized in a cold cleavage buffer to prepare the adipose tissue homogenate. Then the homogenate was centrifuged at 12,000 × g at 4 °C for 15 min, and the supernatant was collected. […] Then the cells were lysed in a petri dish, scraped off, and centrifuged at 12,000 × g at 4 °C for 15 min before the supernatant was collected. […] And concentrations were further standardized according to protein concentration.

IKKε [1] = target: T1, IKKε (Mus musculus, UniProt Q9R0T8); assay: 3T3-L1 adipocytes transfected with IKKε plasmid (western blotting, cAMP, glycerol, ISO); parameters: endogenous in cells; host or cells: differentiated 3T3-L1 adipocytes; IKKε (western blotting, Figure 8h) / UCP1 (western blotting, Figure 8i) / UCP1 (western blotting, Figure 8j): scale not given here; cAMP levels (Figure 8k) / Glycerol release (Figure 8l): unit not given here
T1 sequence (Q9R0T8 1-717): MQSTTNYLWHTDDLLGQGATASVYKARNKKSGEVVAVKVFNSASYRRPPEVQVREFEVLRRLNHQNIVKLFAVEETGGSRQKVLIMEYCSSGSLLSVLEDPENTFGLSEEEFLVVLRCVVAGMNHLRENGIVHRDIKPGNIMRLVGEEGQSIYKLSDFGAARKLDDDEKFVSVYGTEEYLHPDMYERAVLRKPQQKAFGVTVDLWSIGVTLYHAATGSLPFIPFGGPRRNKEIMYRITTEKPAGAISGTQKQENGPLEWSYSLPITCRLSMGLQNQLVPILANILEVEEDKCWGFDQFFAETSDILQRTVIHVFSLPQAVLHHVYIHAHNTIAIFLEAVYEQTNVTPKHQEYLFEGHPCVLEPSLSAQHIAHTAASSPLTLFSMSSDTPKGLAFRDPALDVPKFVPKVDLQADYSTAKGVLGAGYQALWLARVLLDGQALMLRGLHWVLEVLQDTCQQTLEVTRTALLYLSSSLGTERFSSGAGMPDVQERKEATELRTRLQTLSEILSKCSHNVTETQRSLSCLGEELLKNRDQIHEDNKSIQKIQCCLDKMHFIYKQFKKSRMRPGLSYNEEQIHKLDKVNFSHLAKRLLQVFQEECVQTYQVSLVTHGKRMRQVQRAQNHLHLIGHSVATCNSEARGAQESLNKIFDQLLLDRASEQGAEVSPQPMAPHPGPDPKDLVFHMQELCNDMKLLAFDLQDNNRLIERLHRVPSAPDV
Experimental: (§1) Small interference RNA transfection (siRNA) was performed using 4 μM TBK1 siRNA (siTBK1) or 4 μM […]ε) or corresponding NC siRNA (siNC). The epididymal adipose tissue was dissected, the fresh adipose tissue was weighed and rapidly rinsed with PBS. The adipose tissue was cut and incubated with isoproterenol (10 μM) for 2 h, and homogenized in a cold cleavage buffer to prepare the adipose tissue homogenate. Then the homogenate was centrifuged at 12,000 × g at 4 °C for 15 min, and the supernatant was collected. […] Then the cells were lysed in a petri dish, scraped off, and centrifuged at 12,000 × g at 4 °C for 15 min before the supernatant was collected. […] And concentrations were further standardized according to protein concentration. The adipose tissue or 3T3-L1 adipocytes were homogenized by ultrasound in an ice-cold RIPA lysis buffer containing 1% PMSF and centrifuged at 12,000 × g at 4°C for 15 min to collect the supernatant. The BCA protein assay kit (Beyotime, Shanghai, China) was used to detect the total protein concentration. Proteins (20-30 μg) of the sample were separated by 10% SDS-PAGE gel and transferred onto polyvinylidene difluoride (PVDF) membranes. Then the PVDF membranes were blocked in 5% skim milk powder in TBS containing 1% Tween-20 (TBST) for 2 h at room temperature and washed with TBST for 3 times. […] After washing, the membranes were incubated with horseradish peroxidase-conjugated secondary antibodies (in 5% skim milk powder) for 1 h at room temperature. Finally, the membranes were treated with enhanced chemiluminescence agents (Tanon, Shanghai, China) and the signals were monitored using the Tanon 5200 multi chemiluminescent imaging system (Tanon, Shanghai, China).

IKKε [2] = target: T1, IKKε; assay: IKKε-knockdown 3T3-L1 adipocytes (siRNA; western blotting, cAMP, glycerol, ISO); parameters: endogenous in cells; host or cells: differentiated 3T3-L1 adipocytes; conditions: ISO +, 10μM BJ -
Experimental: as §1

Structure (SMILES): CC(C)NCC(O)c1ccc(O)c(O)c1 (stereo not shown) [ISO]
- Glycerol release in differentiated 3T3-L1 adipocytes induced by TNF-α (cAMP, glycerol release; ISO): 113.104 µmol/L and 118.167 µmol/L and 114.792 µmol/L
- cAMP levels in differentiated 3T3-L1 adipocytes induced by TNF-α (cAMP, glycerol release; ISO): 0.361 pmol/mg protein and 0.3597 pmol/mg protein and 0.3681 pmol/mg protein
- Glycerol release in differentiated 3T3-L1 adipocytes induced by TNF-α (cAMP, glycerol release; ISO+TNF-α(50ng/ml)): 103.823 µmol/L and 102.136 µmol/L and 105.511 µmol/L
- cAMP levels in differentiated 3T3-L1 adipocytes induced by TNF-α (cAMP, glycerol release; ISO+TNF-α(50ng/ml)): 0.2016 pmol/mg protein and 0.1968 pmol/mg protein and 0.1945 pmol/mg protein
- Glycerol release (Figure 8l) (IKKε [1]; ISO): 108.886 and 102.136 and 112.261
- UCP1 (western blotting, Figure 8j) (IKKε [1]; ISO): 0.8258 and 0.5499 and 0.929
- cAMP levels (Figure 8k) (IKKε [1]; ISO): 0.2652 and 0.258 and 0.2726
- Glycerol release (Figure 8l) (IKKε [1]; ISO+IKKε): 84.4172 and 90.3234 and 97.917
- UCP1 (western blotting, Figure 8j) (IKKε [1]; ISO+IKKε): 0.3959 and 0.3641 and 0.3989
- cAMP levels (Figure 8k) (IKKε [1]; ISO+IKKε): 0.1824 and 0.1892 and 0.1882
- Glycerol (Figure 9l) (IKKε [2]; siIKKϵ +): 169.673 µmol/L and 171.907 µmol/L and 177.534 µmol/L
- UCP1 (western blotting, Figure 9J) (IKKε [2]; siIKKϵ +): 0.6893 and 0.7105 and 0.7747
- cAMP (Figure 9k) (IKKε [2]; siIKKϵ +): 0.3589 pmol/mg protein and 0.3755 pmol/mg protein and 0.3876 pmol/mg protein and 0.3693 pmol/mg protein and 0.3629 pmol/mg protein and 0.3678 pmol/mg protein
- Glycerol (Figure 9l) (IKKε [2]; siIKKϵ -): 104.409 µmol/L and 108.54 µmol/L and 120.987 µmol/L
- UCP1 (western blotting, Figure 9J) (IKKε [2]; siIKKϵ -): 0.5841 and 0.5565 and 0.4767
- cAMP (Figure 9k) (IKKε [2]; siIKKϵ -): 0.2714 pmol/mg protein and 0.2836 pmol/mg protein and 0.2536 pmol/mg protein and 0.2485 pmol/mg protein and 0.2952 pmol/mg protein
